Test results: BindingDB's records for doi:10.1021/jm049465g (National Institute On Drug Abuse-Intramural Research Program, 2005)

Assay: Inhibition of quinpirole stimulation of mitogenesis at human dopamine D2 receptors expressed in Chinese hamster ovary cells

Row | EC50 | Compound
1 | 61.8 nM | COc1ccc(C(=O)NC/C=C/CN2CCN(c3cccc(Cl)c3Cl)CC2)cc1 [N-{4-[4-(2,3-Dichloro-phenyl)-piperazin-1-yl]-but-2-enyl}-4-methoxy-benzamide]
2 | 162 nM | O=C(NC/C=C/CN1CCN(c2cccc(Cl)c2Cl)CC1)c1ccc(I)cc1 [N-{4-[4-(2,3-Dichloro-phenyl)-piperazin-1-yl]-but-2-enyl}-4-iodo-benzamide]
3 | 13.8 nM | O=C(NC/C=C/CN1CCN(c2cccc(Cl)c2Cl)CC1)c1ccc([N+](=O)[O-])cc1 [N-{(E)-4-[4-(2,3-Dichloro-phenyl)-piperazin-1-yl]-but-2-enyl}-4-nitro-benzamide]
